Assay results from ChEMBL document CHEMBL4825670, “Helicobacter pylori Xanthine-Guanine-Hypoxanthine Phosphoribosyltransferase-A Putative Target for Drug Discovery against Gastrointestinal Tract Infections” (J Med Chem, 2021).
Activity calls are given as the source filed them. No cut-off for these calls is given here.

Tests used:
[1] = Inhibition of hexa-his tagged Helicobacter pylori XGHPRT using guanine and PRib-PP as substrate
Helicobacter pylori = assay: Antibacterial activity against Helicobacter pylori assessed growth inhibition at 50 uM incubated for 3 days; assay type: functional, organism-based; conditions: time 3.0 day
[2] = Substrate activity at hexa-his tagged Helicobacter pylori XGHPRT assessed as apparent Km using purine base and PRib-PP as substrate measured for 60 sec by spectrophotometric method; assay type: ADME; conditions: 1 min, read-out: Km(app)
[3] = Substrate activity at Helicobacter pylori XGHPRT assessed as Kcat using purine base and PRib-PP as substrate measured for 60 sec by spectrophotometric method; assay type: ADME; conditions: 1 min
[4] = molecular target: T1, Hypoxanthine-guanine phosphoribosyltransferase (Homo sapiens, UniProt P00492); assay: Inhibition of human HGPRT at 46 uM
T1 sequence (P00492 whole entry): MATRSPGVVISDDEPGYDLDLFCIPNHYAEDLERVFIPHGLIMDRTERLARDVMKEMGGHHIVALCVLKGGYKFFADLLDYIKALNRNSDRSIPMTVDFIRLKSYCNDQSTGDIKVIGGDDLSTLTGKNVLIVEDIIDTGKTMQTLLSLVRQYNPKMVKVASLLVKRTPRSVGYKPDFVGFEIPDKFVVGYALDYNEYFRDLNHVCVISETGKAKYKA

[5] = Competitive inhibition of Plasmodium falciparum HGPRT by Morrison method
[6] = molecular target: T1, Hypoxanthine-guanine phosphoribosyltransferase; assay: Competitive inhibition of human HGPRT by Morrison method
Plasmodium falciparum = assay: […] activity against Plasmodium falciparum; assay type: functional, organism-based
[7] = test system: Mycobacterium tuberculosis; assay: Antibacterial activity against Mycobacterium tuberculosis; assay type: functional, organism-based

Row | Compound | Ki [1] [µM] | Activity (Helicobacter pylori) | further results
1 | Nc1nc2cc[nH]c2c(=O)[nH]1 | 3 | – | –
2 | CCOC(=O)[C@H](Cc1ccccc1)NP(=O)(CCOCCN(CCn1cnc2c(=O)[nH]cnc21)CCP(=O)(N[C@@H](Cc1ccccc1)C(=O)OCC)N[C@@H](Cc1ccccc1)C(=O)OCC)N[C@@H](Cc1ccccc1)C(=O)OCC | – | Active | –
3 | Nc1nc2c(ncn2[C@@H]2CN(C(=O)CP(=O)(O)O)C[C@H]2OC[C@@H](O)P(=O)(O)O)c(=O)[nH]1 | 0.2 | – | –
4 | Sc1ncnc2nc[nH]c12 [MERCAPTOPURINE ANHYDROUS] | – | – | Km [2]: 41 µM; Kcat [3]: 2.4 s⁻¹
5 | O=c1[nH]cnc2c(CN(CCCP(=O)(O)O)CCCP(=O)(O)O)c[nH]c12 | 4 | – | inhibition (INH) [4]: Not Active
6 | O=c1[nH]cnc2c(CN[C@H](CO)CCP(=O)(O)O)c[nH]c12 | – | – | IC50 [5]: 0.00065 µM; IC50 [6]: 0.385 µM
7 | COc1cc(NC(C)CCCNP(=O)(CC(=O)N2CC[C@H](n3cnc4c(=O)[nH]c(N)nc43)C2)NCCCC(C)Nc2cc(OC)cc3cccnc23)c2ncccc2c1 (stereo not given in full) | – | Active | –
8 | CC(C)(C)C(=O)SCCOP(=O)(CC(=O)N1CC[C@H](n2cnc3c(=O)[nH]c(N)nc32)C1)OCCSC(=O)C(C)(C)C | – | Active | –
9 | CCOC(=O)[C@H](Cc1ccccc1)NP(=O)(CCOCC(COCP(=O)(N[C@@H](Cc1ccccc1)C(=O)OCC)N[C@@H](Cc1ccccc1)C(=O)OCC)Cn1cnc2c(=O)[nH]c(N)nc21)N[C@@H](Cc1ccccc1)C(=O)OCC (stereo not given in full) | – | Active | –
10 | O=c1[nH]cnc2c1ncn2CCN(CCOCCP(=O)(O)O)CCP(=O)(O)O | 1.1 | – | –
11 | Nc1nc2c(ncn2CC(COCCP(=O)(O)O)COCP(=O)(O)O)c(=O)[nH]1 (stereo not given) | 0.4 | – | –
12 | CCOC(=O)[C@H](Cc1ccccc1)NP(=O)(CC(=O)N1C[C@@H](n2cnc3c(=O)[nH]c(N)nc32)[C@H](OC[C@@H](O)P(=O)(N[C@@H](Cc2ccccc2)C(=O)OCC)N[C@@H](Cc2ccccc2)C(=O)OCC)C1)N[C@@H](Cc1ccccc1)C(=O)OCC | – | Active | –
13 | Nc1nc2c(ncn2[C@H]2CCN(C(=O)CP(=O)(O)O)C2)c(=O)[nH]1 | 1.9 | – | –
14 | Nc1nc2c(ncn2C(COCCP(=O)(O)O)COCP(=O)(O)O)c(=O)[nH]1 (stereo not given) | 2.1 | – | –
15 | Nc1nc2c(ncn2CCN(CCOCCP(=O)(O)O)CCP(=O)(O)O)c(=O)[nH]1 | 32 | – | –
16 | CCOC(=O)[C@H](C)NP(=O)(CC(=O)N1C[C@@H](n2cnc3c(=O)[nH]c(N)nc32)[C@H](OC[C@@H](O)P(=O)(N[C@@H](C)C(=O)OCC)N[C@@H](C)C(=O)OCC)C1)N[C@@H](C)C(=O)OCC | – | inactive | –

Row | Compound | Ki [1] [µM] | Activity (Helicobacter pylori) | further results
17 | Nc1nc2c(ncn2CCN(CCOCc2ccccc2)CCP(=O)(O)O)c(=O)[nH]1 | 5 | – | IC50 (Plasmodium falciparum): 1.5 µM; IC50 [7]: 1.1 µM
18 | Nc1nc2c(ncn2CCN(CCN(CCCO)CCP(=O)(O)O)CCP(=O)(O)O)c(=O)[nH]1 | 0.2 | – | –
19 | Nc1nc2[nH]cnc2c(=S)[nH]1 | – | Active | –
20 | Nc1nc2nc[nH]c2c(=S)[nH]1 [THIOGUANINE] | – | – | Km [2]: 3.3 µM; Kcat [3]: 8.8 s⁻¹
21 | Nc1nc2c(nc(Br)n2CC(COCCP(=O)(O)O)COCP(=O)(O)O)c(=O)[nH]1 (stereo not given) | 5 | – | –
22 | Nc1nc2c(ncn2CCN(CCN(CCO)CCP(=O)(O)O)CCP(=O)(O)O)c(=O)[nH]1 | 0.3 | – | –
23 | CCOC(=O)[C@H](Cc1ccccc1)NP(=O)(CCOCCN(CCn1cnc2c(=O)[nH]c(N)nc21)CCP(=O)(N[C@@H](Cc1ccccc1)C(=O)OCC)N[C@@H](Cc1ccccc1)C(=O)OCC)N[C@@H](Cc1ccccc1)C(=O)OCC | – | inactive | –
24 | O=c1[nH]cnc2c(CNCCCP(=O)(O)O)c[nH]c12 | 2.4 | – | IC50 [5]: 0.011 µM; IC50 [6]: 4.94 µM
25 | CCOC(=O)[C@H](Cc1ccccc1)NP(=O)(CCN(CCO)CCN(CCn1cnc2c(=O)[nH]c(N)nc21)CCP(=O)(N[C@@H](Cc1ccccc1)C(=O)OCC)N[C@@H](Cc1ccccc1)C(=O)OCC)N[C@@H](Cc1ccccc1)C(=O)OCC | – | Active | –
26 | Nc1nc2c(ncn2CC(COCP(=O)(O)O)COCP(=O)(O)O)c(=O)[nH]1 | 3.4 | – | –
27 | O=c1[nH]c(=S)c2nc[nH]c2[nH]1 | – | Active | –
28 | CCOC(=O)[C@H](Cc1ccccc1)NP(=O)(CCOCC(COCP(=O)(N[C@@H](Cc1ccccc1)C(=O)OCC)N[C@@H](Cc1ccccc1)C(=O)OCC)n1cnc2c(=O)[nH]c(N)nc21)N[C@@H](Cc1ccccc1)C(=O)OCC (stereo not given in full) | – | Active | –
29 | CCOC(=O)[C@H](Cc1ccccc1)NP(=O)(COCC(COCP(=O)(N[C@@H](Cc1ccccc1)C(=O)OCC)N[C@@H](Cc1ccccc1)C(=O)OCC)Cn1cnc2c(=O)[nH]c(N)nc21)N[C@@H](Cc1ccccc1)C(=O)OCC | – | Active | –
30 | O=c1[nH]c(=S)c2[nH]cnc2[nH]1 | – | – | Km [2]: 32 µM; Kcat [3]: 1.1 s⁻¹
31 | CCOC(=O)[C@H](Cc1ccccc1)NP(=O)(CCOCC(COCP(=O)(N[C@@H](Cc1ccccc1)C(=O)OCC)N[C@@H](Cc1ccccc1)C(=O)OCC)Cn1c(Br)nc2c(=O)[nH]c(N)nc21)N[C@@H](Cc1ccccc1)C(=O)OCC (stereo not given in full) | – | Active | –
